Measured values from patent US20240150293A1, “SPIROCYCLOHEXANE DERIVATIVES, PHARMACEUTICAL COMPOSITIONS CONTAINING THEM AND THEIR USES AS ANTI-APOPTOTIC INHIBITORS” (LES LABORATOIRES SERVIER, priority 2021, published 2024).

Target: Mcl-1 protein (UniProtKB Q07820) (Homo sapiens (Human), UniProt Q07820)
Assay: Inhibition of Mcl-1 by the fluorescence polarisation assay (Example A, Method A)
Type: binding
Conditions: fluorescence polarization assay
How it was run: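 Protein (5 nM) and fluorescein-tagged peptide tracer (1 nM) incubated with 11-point compound series for 2 h at room temperature in HEPES/NaCl/Tween 20 buffer, pH 7.4, 5% DMSO. Displacement read as decrease in polarisation; IC50 fitted by 4-parameter logistic, converted to Ki (cKi or eKi).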

Chain of Mcl-1 protein (Q07820 whole entry): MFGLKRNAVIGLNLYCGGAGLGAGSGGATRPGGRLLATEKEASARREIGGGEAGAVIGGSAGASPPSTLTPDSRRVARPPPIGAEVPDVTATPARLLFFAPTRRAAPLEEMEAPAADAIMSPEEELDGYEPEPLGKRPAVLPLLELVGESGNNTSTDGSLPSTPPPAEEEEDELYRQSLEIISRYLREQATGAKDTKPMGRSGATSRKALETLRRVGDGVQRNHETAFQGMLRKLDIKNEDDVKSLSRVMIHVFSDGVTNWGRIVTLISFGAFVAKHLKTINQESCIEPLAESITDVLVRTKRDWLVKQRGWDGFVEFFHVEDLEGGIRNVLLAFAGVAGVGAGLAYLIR

Row | Compound | Ki [µM]
1 | O=C(NCCc1ccccc1)C1Cc2ccccc2[C@]12CC[C@@](Nc1cccc(Cl)c1)(C(=O)O)CC2 (single isomer, unassigned) [Example 405, (1r,4r)-4-(3-chloroanilino)-2′-[(2-phenylethyl)carbamoyl]-2′,3′-dihydrospiro[cyclohexane-1,1′-indene]-4-carboxylic acid] | 15.2
2 | O=C(O)[C@]1(Nc2cccc(Cl)c2)CC[C@@]2(CC1)c1ccccc1CC2c1ccc(Oc2ccncc2)cc1 (single isomer, unassigned) [Example 365, (1r,4r)-4-(3-chloroanilino)-2′-{4-[(pyridin-4-yl)oxy]phenyl}-2′,3′-dihydrospiro[cyclohexane-1,1′-indene]-4-carboxylic acid] | 3.09
3 | O=C(NCCc1ccccc1)C1Cc2ccccc2[C@]12CC[C@@](Nc1cccc(Cl)c1)(C(=O)O)CC2 (single isomer, unassigned) [Example 406, (1r,4r)-4-(3-chloroanilino)-2′-[(2-phenylethyl)carbamoyl]-2′,3′-dihydrospiro[cyclohexane-1,1′-indene]-4-carboxylic acid] | 6.17
4 | CN(c1cccc(Cl)c1)[C@]1(C(=O)O)CC[C@]2(C=Cc3ccccc32)CC1 [Example 73, (1r,4r)-4-[(3-chlorophenyl)(methyl)amino]spiro[cyclohexane-1,1′-indene]-4-carboxylic acid] | 60.5
5 | O=C(O)[C@]1(Nc2cccc(Cl)c2)CC[C@@]2(CC1)c1ccccc1CC2c1cccc2ccoc12 (single isomer, unassigned) [Example 294, (1r,4r)-2′-(1-benzofuran-7-yl)-4-(3-chloroanilino)-2′,3′-dihydrospiro[cyclohexane-1,1′-indene]-4-carboxylic acid] | 6.63
6 | CN1c2ccc(-c3ccccc3)cc2[C@]2(CC[C@](Nc3cccc(Br)c3)(C(=O)O)CC2)C1=O [Example 10, (1r,4r)-4-(3-bromoanilino)-1′-methyl-2′-oxo-5′-phenyl-1′,2′-dihydrospiro[cyclohexane-1,3′-indole]-4-carboxylic acid] | 10.7
7 | COc1cc(Cl)cc(C2=Cc3ccccc3[C@]23CC[C@@](Nc2cccc(Cl)c2)(C(=O)O)CC3)c1 [Example 331, (1s,4s)-4-(3-chloroanilino)-2′-(3-chloro-5-methoxyphenyl)spiro[cyclohexane-1,1′-indene]-4-carboxylic acid] | 2.18
8 | COc1ccc(C2=Cc3ccccc3[C@]23CC[C@](Nc2cccc(Cl)c2)(C(=O)O)CC3)cc1C [Example 224, (1r,4r)-4-(3-chloroanilino)-2′-(4-methoxy-3-methylphenyl)spiro[cyclohexane-1,1′-indene]-4-carboxylic acid] | 22.3
9 | O=C(O)[C@]1(Nc2cccc(Cl)c2)CC[C@@]2(CC1)c1ccccc1CC2c1ccc2ccoc2c1 (single isomer, unassigned) [Example 290, (1r,4r)-2′-(1-benzofuran-6-yl)-4-(3-chloroanilino)-2′,3′-dihydrospiro[cyclohexane-1,1′-indene]-4-carboxylic acid] | 14.4
10 | Cc1ccc(C2Cc3ccccc3C23CCC(Nc2cccc(Br)c2)(C(=O)O)CC3)cc1 (stereo not shown) [Example 216, 4-(3-bromoanilino)-2′-(4-methylphenyl)-2′,3′-dihydrospiro[cyclohexane-1,1′-indene]-4-carboxylic acid] | 1.74
11 | O=C(O)[C@]1(Nc2cccc(Br)c2)CC[C@@]2(CC1)C(c1ccccc1)=Cc1ccccc12 [Example 209, (1r,4r)-4-(3-bromoanilino)-2′-phenylspiro[cyclohexane-1,1′-indene]-4-carboxylic acid] | 35
12 | CC1=C(C(C)C)c2ccccc2[C@]12CC[C@@](Nc1cccc(Br)c1)(C(=O)O)CC2 [Example 204, (1r,4r)-4-(3-bromoanilino)-2′-methyl-3′-(propan-2-yl)spiro[cyclohexane-1,1′-indene]-4-carboxylic acid] | 22.4
13 | COc1cccc(C2Cc3ccccc3[C@]23CC[C@@](Nc2cccc(Cl)c2)(C(=O)O)CC3)c1 (single isomer, unassigned) [Example 273, (1r,4r)-4-(3-chloroanilino)-2′-(3-methoxyphenyl)-2′,3′-dihydrospiro[cyclohexane-1,1′-indene]-4-carboxylic acid] | 1.72
14 | O=C(O)[C@]1(Nc2cccc(Cl)c2)CC[C@@]2(CC1)c1ccccc1CC2C1CCCC1 (single isomer, unassigned) [Example 92, (1r,4r)-4-(3-chloroanilino)-2′-cyclopentyl-2′,3′-dihydrospiro[cyclohexane-1,1′-indene]-4-carboxylic acid] | 7.37
15 | COc1ccc(C)c(C2=Cc3ccccc3[C@]23CC[C@@](Nc2cccc(Cl)c2)(C(=O)O)CC3)c1 [Example 252, (1s,4s)-4-(3-chloroanilino)-2′-(5-methoxy-2-methylphenyl)spiro[cyclohexane-1,1′-indene]-4-carboxylic acid] | 5.27
16 | COc1cccc(N2Cc3ccccc3[C@]23CC[C@@](Nc2cccc(Br)c2)(C(=O)O)CC3)c1 [Example 32, (1s,4s)-4-(3-bromoanilino)-2′-(3-methoxyphenyl)-2′,3′-dihydrospiro[cyclohexane-1,1′-isoindole]-4-carboxylic acid] | 3.21
17 | O=C(O)C1(Nc2cccc(Br)c2)CCC2(CC1)C(c1cc(Cl)cc(Cl)c1)=Cc1ccccc12 (single isomer, unassigned) [Example 236, 4-(3-bromoanilino)-2′-(3,5-dichlorophenyl)spiro[cyclohexane-1,1′-indene]-4-carboxylic acid] | 27.1
18 | O=C(O)C1(Nc2cccc(Br)c2)CCC2(C=Cc3cccc(Br)c32)CC1 (single isomer, unassigned) [Example 59, 7′-bromo-4-(3-bromoanilino)spiro[cyclohexane-1,1′-indene]-4-carboxylic acid] | 4.21

Molecules with a lower Ki, results first:

Row | Ki [µM] | Compound
19 | 1.51 | O=C(O)[C@]1(Nc2cccc(Cl)c2)CC[C@]2(CC1)C(c1cccc(OCc3ccccc3)c1)=Cc1ccccc12 [Example 302, (1s,4s)-2′-[3-(benzyloxy)phenyl]-4-(3-chloroanilino)spiro[cyclohexane-1,1′-indene]-4-carboxylic acid]
20 | 1.34 | O=C(O)C1(Nc2cccc(Br)c2)CCC2(CC1)c1ccccc1CC2CCCc1ccccc1 (single isomer, unassigned) [Example 151, (1r,4r)-4-(3-bromoanilino)-2′-(3-phenylpropyl)-2′,3′-dihydrospiro[cyclohexane-1,1′-indene]-4-carboxylic acid]
21 | 1.32 | O=C(O)C1(Nc2cccc(Cl)c2)CCC2(CC1)c1ccccc1CC2c1ccc(OCc2cccnc2)cc1 (stereo not shown) [Example 368, (1r,4r)-4-(3-chloroanilino)-2′-{4-[(pyridin-3-yl)methoxy]phenyl}-2′,3′-dihydrospiro[cyclohexane-1,1′-indene]-4-carboxylic acid]
22 | 1.31 | O=C(O)[C@]1(Nc2cccc(Cl)c2)CC[C@@]2(CC1)c1ccccc1CC2CCCS(=O)(=O)c1ccccc1 (stereo partly shown) [Example 398, (1r,4r)-2′-[3-(benzenesulfonyl)propyl]-4-(3-chloroanilino)-2′,3′-dihydrospiro[cyclohexane-1,1′-indene]-4-carboxylic acid]
23 | 1.17 | CC[C@H](COc1ccccc1)C[C@H]1Cc2ccccc2[C@]12CC[C@@](Nc1cccc(Cl)c1)(C(=O)O)CC2 [Example 541, (1r,2′S,4S)-4-(3-chloroanilino)-2′-[(2S)-2-(phenoxymethyl)butyl]-2′,3′-dihydrospiro[cyclohexane-1,1′-indene]-4-carboxylic acid]
24 | 0.809 | Cn1ccc(OCCCC2Cc3ccccc3[C@]23CC[C@@](Nc2cccc(Cl)c2)(C(=O)O)CC3)cc1=O (stereo partly shown) [Example 479, (1r,4r)-4-(3-chloroanilino)-2′-{3-[(1-methyl-2-oxo-1,2-dihydropyridin-4-yl)oxy]propyl}-2′,3′-dihydrospiro[cyclohexane-1,1′-indene]-4-carboxylic acid]
25 | 0.623 | Cc1ccc(CCOCC2=Cc3ccccc3[C@]23CC[C@@](Nc2cccc(Cl)c2)(C(=O)O)CC3)cc1 [Example 416, (1s,4s)-4-(3-chloroanilino)-2′-{[2-(4-methylphenyl)ethoxy]methyl}spiro[cyclohexane-1,1′-indene]-4-carboxylic acid]
26 | 0.593 | O=C(O)[C@]1(Nc2cccc(Cl)c2)CC[C@]2(CC1)C(c1cccc3ccoc13)=Cc1ccccc12 [Example 266, (1s,4s)-2′-(1-benzofuran-7-yl)-4-(3-chloroanilino)spiro[cyclohexane-1,1′-indene]-4-carboxylic acid]
27 | 0.431 | CN1C(=O)Cc2cc(OCCCC3Cc4ccccc4[C@]34CC[C@@](Nc3cccc(Cl)c3)(C(=O)O)CC4)ccc21 (stereo partly shown) [Example 480, (1r,4r)-4-(3-chloroanilino)-2′-{3-[(1-methyl-2-oxo-2,3-dihydro-1H-indol-5-yl)oxy]propyl}-2′,3′-dihydrospiro[cyclohexane-1,1′-indene]-4-carboxylic acid]
28 | 0.258 | CCCC1Cc2ccccc2[C@]12CC[C@@](Nc1cccc(Br)c1)(C(=O)O)CC2 (stereo partly shown) [Example 148, (1r,4r)-4-(3-bromoanilino)-2′-propyl-2′,3′-dihydrospiro[cyclohexane-1,1′-indene]-4-carboxylic acid]
29 | 0.182 | CC1=Cc2ccccc2[C@]12CC[C@@](Nc1cccc(Cl)c1)(C(=O)O)CC2 [Example 143, (1r,4r)-4-(3-chloroanilino)-2′-methylspiro[cyclohexane-1,1′-indene]-4-carboxylic acid]
30 | 0.0992 | O=C(O)[C@]1(Nc2cccc(Cl)c2)CC[C@@]2(CC1)c1ccccc1CC2CCCOc1ccnc2c1CCC2O (stereo partly shown) [Example 475, (1r,4r)-4-(3-chloroanilino)-2′-{3-[(7-hydroxy-6,7-dihydro-5H-cyclopenta[b]pyridin-4-yl)oxy]propyl}-2′,3′-dihydrospiro[cyclohexane-1,1′-indene]-4-carboxylic acid]
31 | 0.0328 | CC1CCc2nccc(OC[C@H](C)CC3Cc4ccccc4[C@]34CC[C@@](Nc3cccc(Cl)c3)(C(=O)O)CC4)c21 (single isomer, unassigned) [Example 601]
